# Where a SMILES comes first, the peptide text is derived from it. The star is where a group is joined. Palmitoyl = CCCCCCCCCCCCCCCC(=O)*
# Experiment: Solubilization of each lyophilized lipopeptide in pure acetic acid
# Type: physicochemical
# Details: pure acetic acid added to obtain 12.5 mg net/ml; before sonication
# Method: Each lipopeptide is then solubilized by adding pure acetic acid to obtain a concentration of 12.5 mg net/ml. […] If the aggregates are not dissociated, the sonication is continued, separating each period of sonication (30 s) by 30 s gaps of no sonication, during which the bottles are shaken manually. At the end of the sonication step, the suspensions should be homogeneous (but will not be clear). Each lipopeptide is then diluted by adding water for injectable preparation. If the solution obtained is not totally clear, steps of heating in a water bath (at 40° C.±2° C.) and sonication (1 min maximum) may be carried out, separating them by 30 s gaps of no sonication. The final preparation is obtained by mixing the lipopeptides in equal weight amounts, adding them in the following order (the most hydrophilic to the most hydrophobic lipopeptides):
structure (smiles),measurement,value
CCCCCCCCCCCCCCCC(=O)NCCCC[C@H](NC(=O)[C@H](CC(C)C)NC(=O)[C@H](CCCCN)NC(=O)[C@H](Cc1ccc(O)cc1)NC(=O)[C@H](CC(C)C)NC(=O)[C@H](Cc1c[nH]c2ccccc12)NC(=O)CNC(=O)[C@H](Cc1ccccc1)NC(=O)[C@@H](NC(=O)[C@H](CC(C)C)NC(=O)[C@@H]1CCCN1C(=O)[C@H](Cc1ccc(O)cc1)NC(=O)[C@H](CCCNC(=N)N)NC(=O)[C@@H](NC(=O)CNC(=O)[C@@H]1CCCN1C(=O)CNC(=O)[C@@H]1CCCN1C(=O)[C@@H](NC(=O)[C@H](Cc1ccc(O)cc1)NC(=O)[C@H](CC(N)=O)NC(=O)[C@H](CCC(N)=O)NC(=O)[C@H](Cc1c[nH]c2ccccc12)NC(=O)[C@H](CC(=O)O)NC(=O)[C@@H]1CCCN1C(=O)[C@H](Cc1ccccc1)NC(=O)[C@H](Cc1ccc(O)cc1)NC(=O)CNC(=O)[C@H](CCC(N)=O)NC(=O)[C@@H](NC(=O)[C@@H](N)Cc1c[nH]cn1)[C@@H](C)O)[C@@H](C)O)C(C)C)[C@@H](C)O)C(N)=O [Nef 116] (H-HTQGYFPDWQNYTPGPGVRYPLTFGWLYKLK(Palmitoyl)-NH2; N-terminus assumed),solubility in pure acetic acid,soluble

# Reference: patent US20040058861A1, “Use of lipopeptides in immunotherapy of HIV+ individuals” (priority 2000, published 2004)
